Test results published in paper PMC3990705, “A p38 Substrate-Specific MK2-EGFP Translocation Assay for Identification and Validation of New p38 Inhibitors in Living Cells: A Comprising Alternative for Acquisition of Cellular p38 Inhibition Data” (PLoS ONE, 2014).
Where two headings read alike, the source gives them in different places.

Tests used:
p38 MAPK = target: T1, p38 MAPK (Homo sapiens, UniProt Q16539); assay: MK2-EGFP translocation assay (High Content Analysis); format: cell-based; conditions: for nuc/cyt ratio at 15 nM ± SD: 15 nM compound, activated U2OS MK2-EGFP cells, N = 3; for potency towards p38 inhibition in the translocation screen: 1.5 µM, 150 nM, 15 nM, normalized to Skepinone-L
T1 construct: endogenous in cells; host or cells: U2OS-MK2-EGFP-clone-RA#2
T1 sequence (Q16539 whole entry): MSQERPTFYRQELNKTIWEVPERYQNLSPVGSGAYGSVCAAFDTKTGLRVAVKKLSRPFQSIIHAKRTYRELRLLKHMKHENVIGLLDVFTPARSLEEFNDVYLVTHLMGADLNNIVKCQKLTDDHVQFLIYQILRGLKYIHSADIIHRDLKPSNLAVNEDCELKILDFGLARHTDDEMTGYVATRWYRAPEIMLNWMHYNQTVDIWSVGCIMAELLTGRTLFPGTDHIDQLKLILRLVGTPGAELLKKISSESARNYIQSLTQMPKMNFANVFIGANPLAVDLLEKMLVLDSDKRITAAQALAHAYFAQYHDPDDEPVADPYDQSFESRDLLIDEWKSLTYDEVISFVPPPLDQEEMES
Description: Screening was performed in biological duplicates on different days and different cell line passages. For cellular screening ∼ 12.500 cells were seeded into 96-well clear tissue-culture micro-plates (Bio-One µClear, Greiner, Germany) and grown until 90% confluence. The Rac/p38 MAPK pathway was activated by exchanging normal growth media with hyperosmotic media. […] Plates were mixed thoroughly and incubated at 37°C and 5% CO2 in a humidified chamber atmosphere. After 80–90 minutes the treatment was stopped by disposing the media. Subsequently cell were fixed using 3% PFA/PBS in 1x PBS at pH 7.4 for 15 minutes and washed with PBS and PBST (0.05% Tween-20) following nuclear DNA staining using 150 ng/mL DAPI in 1xPBS/35 µg/mL RNAseA. Finally, plates were transferred in an automated cytomat incubator (Thermo Scientific, Germany) combined with a robotic plate handling device (PAA, UK) and subjected to automated image acquisition.
Images of EGFP and DAPI fluorescent cells were acquired using an Image Xpress micro XL microscope (Molecular Devices, Germany). […] On average 400 cells per well were imaged, allowing reliable statistical measures and quantification.
Automated image analysis was carried out using the MetaXpress software (Molecular Devices, Germany). Fluorescence intensity ratios were calculated using the average of the cellular MK2-EGFP fluorescence intensity (Cell: nuclear inner/outer mean intensity) of all images/sites per well. p38 activation was defined as positive when the nucleocytoplasmic MK2-fluorescence intensity ratio was below 0.7. For further analysis, the average of the mean of the entire plate was calculated and used for internal plate normalization. For quality assessment of the screening the Log-Z-score was determined. Obtained values were calculated on the normalized nucleocytoplasmic MK2-fluorescence intensity ratio (average of the mean) of respective data-points.
Image analysis and result calculations were performed as described.

[1] = test system: TNFα release in human whole blood; assay: Whole blood assay (WBA), TNFα release after LPS stimulation; format: cell-based; conditions: N = 3, read-out: WBA TNFα IC50 ± SD
Description: For determination of inhibitor potency of the compounds by detection of TNFα release in human whole blood an in vitro assay using human whole blood stimulated with LPS for TNFα synthesis is a reliable test system for inhibitors of cytokine synthesis, especially for p38 MAP kinase inhibitors as TNFα synthesis is mainly mediated by p38 MAP kinase. Therefore, the synthesis and release of proinflammatory cytokines in human whole blood from a healthy donor is stimulated using a LPS solution (1 µg/mL, Sigma-Aldrich, Germany) after preincubation of inhibitor dilution (as described in [26]). After 2.5 hours of incubation in a 5% CO2 incubator, the stimulation is stopped and plasma is obtained by centrifugation of the whole blood, followed by TNFα readout from the plasma using a commercially available TNFα ELISA kit (R&D Systems, Germany). The blood sample was obtained with the written informed consent of the donor to participate in this study. The ethics committee (Ethik-Kommission der Medizinischen Fakultät und am Universitätsklinikum Tuebingen) state that an ethical statement is not mandatory when the researchers use their own blood/plasma for experiments. The german statutes and the Declaration of Helsinki are not aimed at experiments using samples provided by the principal investigator him or herself. In the opinion of the committee, the Declaration of Helsinki is designed to protect the patient’s interests and to avoid abuse of the patient’s material.

p38α MAPK = p38α MAPK (Homo sapiens, UniProt Q16539); assay: Biochemical p38 MAPK activity assay (BAA), ELISA of ATF-2 phosphorylation
p38α MAPK, sequence (Q16539 whole entry): as above
Description: Kinase activity assays were used for identification of p38α MAPK and JNK3 inhibitors. The experimental settings and screening procedures are previously described by Goettert et al., [28].
Briefly, the ELISA assay was performed using 96-well plates (MaxiSorp, NUNC, Germany) by measuring the activity of p38α MAPK after incubation with a candidate inhibitor. Therefore, the phosphorylation degree of activation transcription factor 2 (ATF-2) is detected by a monoclonal peroxidase conjugated antibody in a dilution of 1∶5000 (Sigma-Aldrich, Germany). This monoclonal anti-phospho-ATF-2 (Thr69/71) peroxidase-conjugated antibody reacts specifically with dually phosphorylated ATF-2, detecting neither the mono- nor the unphosphorylated kinase substrate. ATF- 2 is a natural substrate of the p38 MAPKs and JNK3, and its phosphorylation is inversely correlated with the inhibitor potency.

JNK3 = assay: Phospho-Ser63-c-Jun/JNK assay in U2OS MK2-EGFP cells; format: cell-based, human; conditions: phospho-c-Jun Ser-63 endpoint, multiplexed with MK2-EGFP assay
Description: Compound specificity towards p38 and JNK were analyzed in a secondary JNK activity assay detecting phosphorylated c-Jun (Ser63) as a substrate of JNK. This assay could be easily multiplexed with the MK2-EGFP assay as described by Henriksen et al. [31]. Briefly, stimulated U2OS-MK2-EGFP-clone-RA#2 cells were fixed in 96-well plates with 4% PFA/PBS, blocked and permeabilized with protein-free blocking media (Pierce, USA) in TBS with 0.1% Triton X-100. Samples were incubated overnight at 4°C with an antibody directed against phospho-c-Jun Ser63 (#9261, Cell Signaling Technology, USA) diluted 1∶150 in TBST followed by detection with an Alexa647-goat-α-rabbit (Life Technologies, Germany). After washing procedures cells were subjected to image acquisition and automated image-analysis as described.

JNK = test system: JNK; set-up: method as in PMID 11717429; conditions: cited from earlier work
U2OS MK2-EGFP cells = assay: Cellular viability assay (AlamarBlue); format: cell-based, human; conditions: 24 h, 15 nM–15 µM
Description: The cellular viability assay was performed according to standard procedures (for details see AlamarBlue manual #DAL1100, Life Technologies, Germany). Briefly, ∼ 15.000 cells of the U2OS MK2-EGFP clone-RA#2 cell line were plated in 96 well µclear plate and grown in growth media until sub-confluency. Subsequently, cells were treated with compounds in indicated concentrations for 24 h at 37°C in a humidified chamber containing 5% CO2. After compound treatment the amount of living cells was monitored microscopically and cell-viability was determined using the AlamarBlue assay. For this purpose, resazurin was added freshly to the growth media devoid of phenol red as described. The media premixed with the resazurin substrate was pre-warmed to 37°C and 200 µL were added to the pre-treated cells in the 96-well plate. Following incubation at 37°C, 5% CO2 for 4 h the fluorescence of the media was measured in a PHERAstar photometer (BMG Labtech, USA) with the filter sets: Ex: 540nm/Em: 580nm.

[2] = inhibition of phosphorylation of ATF2, N = 3, read-out: BAA p38 IC50 ± SD

Row | SMILES | nuc/cyt ratio at 15 nM ± SD (p38 MAPK) | IC50 [1] | IC50 (p38α MAPK; read-out: BAA p38 IC50 ± SD) | other results
1 | Nc1ccccc1Nc1ccc2c(c1)CCc1ccc(OC[C@H](O)CO)cc1C2=O [LN809] | 1,064±0,1062 | 47 nM | 10.1 nM | –
2 | CC(C)C(C)Nc1cc(-c2[nH]c(SCCCO)nc2-c2ccc(F)cc2)ccn1 (stereo not shown) [LN949] | 1,111±0,0012 | 173 nM | 11.7 nM | –
3 | CC(C)Nc1cc(-c2[nH]c(SC[C@H](O)CO)nc2-c2ccc(F)cc2)ccn1 [LN954] | 1,068±0,0406 | 182 nM | 5.7 nM | –
4 | CC(C)Nc1cc(-c2[nH]c(SCCO)nc2-c2ccc(F)cc2)ccn1 [LN957] | 1,158±0,0756 | 129 nM | – | IC50 (p38α MAPK; [2]): 3 nM
5 | O=C(Nc1cc(Nc2ccc3c(c2)CCc2ccc(OCCN4CCOCC4)cc2C3=O)ccc1F)c1ccoc1 [LN1311] | 1,088±0,0781 | 106 nM | 1.1 nM | –
6 | CNC(=O)c1ccc2c(c1)C(=O)c1ccc(Nc3ccc(F)cc3F)cc1CC2 [LN1496] | 1,088±0,0231 | 37 nM | 3.2 nM | –
7 | O=C(Nc1cc(Nc2ccc3c(c2)CCc2ccc(OCCN4CCOCC4)cc2C3=O)c(F)cc1F)c1ccccc1 [LN1503] | 1,057±0,0332 | 221 nM | 1.3 nM | –
8 | O=C(Nc1cc(Nc2ccc3c(c2)CCc2ccc(OCCN4CCOCC4)cc2C3=O)c(F)cc1F)c1ccsc1 [LN1637] | 1,206±0,0326 | 6 nM | – | IC50 (p38α MAPK; [2]): 0.5 nM; IC50 (p38α MAPK; summary of Table 1, read-out: BAA, IC50): 5 nM
9 | O=C(NCC(O)CO)c1ccc2c(c1)C(=O)c1ccc(Nc3cc(NC(=O)c4ccsc4)c(F)cc3F)cc1CC2 (stereo not shown) [LN1878] | 1,211±0,1416 | – | 1.9 nM | –
10 | CC(C)Sc1nc(-c2ccc(F)cc2)c(-c2ccnc(NC3CCOCC3)c2)[nH]1 [RN4296] | 1,288±0,2483 | – | 3.7 nM | potency towards p38 inhibition in the translocation screen (p38 MAPK): most potent compound towards p38 inhibition
11 | Oc1c2ccccc2c2c3c(cccc13)N=N2 [SP600125] | – | – | – | inhibition of p38 and JNK3 (selectivity) (JNK3): Selective inhibition of JNK3 activity; selectivity over p38 (JNK): 300 fold
12 | O=C1c2ccc(Nc3ccc(F)cc3F)cc2CCc2ccc(OC[C@H](O)CO)cc21 [Skepinone-L, reference compound] | – | 59 nM | – | cellular effectiveness in log-dilution experiments (p38 MAPK; 0 µM –100 µM, living cells): inhibits p38 from 10 nM –1 µM in living cells; potency towards p38 inhibition in the translocation screen (p38 MAPK): outstanding potency; effect on nuclear export of MK2-EGFP (p38 MAPK; 10 µM compound): abolishes nuclear export of MK2-EGFP; cytotoxic effects / cellular viability (U2OS MK2-EGFP cells): do not affect cellular viability
